The experiment deals with T1, T7 RNA polymerase (Escherichia phage T7, UniProt P00573).
T1 construct: purchased
Kind of experiment: Capped mRNA synthesis by in vitro transcription with cap analog (product amount, Nanodrop One). The experiment is classed as biochemical. Particulars: per 1 mL reaction system; in vitro transcription at 37°C, 4 hours; purified mRNA quantified with Nanodrop One. The text has this: • a) A plasmid was linearized and a DNA template was purified. • b) Capping analogs of the present invention and Comparative Example 1 Trilink CleanCap, cap analogs of Comparative Example 2 and Comparative Example 3 were used to synthesize mRNA by in vitro transcription, respectively. Comparative Example 1 was commercially purchased, and Comparative Example 2 and Comparative Example 3 were obtained according to the method disclosed in WO2022/036858. [drawing 172]
Table 1 In vitro transcription system
c) During the experiment, the above reagents were fully mixed and incubated at 37°C. After 4 hours, deoxyribonuclease (DNase) was added and incubated for 30 minutes to remove the DNA template. After digestion, LiCl solution was added, precooled and centrifuged at 1,6000 rpm for 15 minutes to remove the supernatant. 70% ethanol was added and centrifuged to remove the supernatant again, and then a certain amount of enzyme-free water was added for storage. […] Table 2 amount (mg) of final product obtained per 1 mL of mRNA synthesis reaction system

T1 sequence (P00573 whole entry): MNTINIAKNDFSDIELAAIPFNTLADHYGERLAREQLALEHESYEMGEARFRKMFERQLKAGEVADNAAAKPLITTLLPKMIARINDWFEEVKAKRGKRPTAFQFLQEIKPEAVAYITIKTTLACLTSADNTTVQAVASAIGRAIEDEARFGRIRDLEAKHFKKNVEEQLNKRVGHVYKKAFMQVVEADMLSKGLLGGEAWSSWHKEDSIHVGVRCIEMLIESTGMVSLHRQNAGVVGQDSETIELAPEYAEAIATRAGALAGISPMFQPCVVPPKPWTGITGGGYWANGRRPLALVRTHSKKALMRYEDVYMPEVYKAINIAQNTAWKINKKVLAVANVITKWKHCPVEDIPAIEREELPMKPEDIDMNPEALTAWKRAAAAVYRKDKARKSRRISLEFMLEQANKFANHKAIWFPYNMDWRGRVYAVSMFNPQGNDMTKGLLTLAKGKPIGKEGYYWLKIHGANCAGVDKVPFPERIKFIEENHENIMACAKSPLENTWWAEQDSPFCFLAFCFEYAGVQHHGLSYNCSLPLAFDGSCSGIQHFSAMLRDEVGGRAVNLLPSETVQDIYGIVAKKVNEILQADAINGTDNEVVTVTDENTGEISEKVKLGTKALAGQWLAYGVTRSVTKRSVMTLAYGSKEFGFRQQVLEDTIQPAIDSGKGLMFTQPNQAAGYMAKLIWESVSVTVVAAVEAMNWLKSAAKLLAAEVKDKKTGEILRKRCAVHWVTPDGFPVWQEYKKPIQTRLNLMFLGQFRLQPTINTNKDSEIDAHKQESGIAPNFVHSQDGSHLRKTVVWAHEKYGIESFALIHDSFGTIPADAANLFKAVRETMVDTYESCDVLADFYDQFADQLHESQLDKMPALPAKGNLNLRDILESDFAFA

For `C[n+]1cn([C@@H]2O[C@H](COP(=O)(O)OP(=O)(O)OP(=O)(O)OC[C@H]3O[C@@H](n4cnc5c(N)ncnc54)[C@H](O)[C@@H]3OP(=O)(O)OC[C@H]3O[C@@H](n4cnc5c(=O)[nH]c(N)nc54)[C@H](F)[C@@H]3O)[C@@H](O)[C@H]2O)c2nc(N)[nH]c(=O)c21` [Compound 8], the “Product amount: amount (mg) of final product obtained per 1 mL of mRNA synthesis reaction system” value is 4.7 mg.
Regarding `C[n+]1cn([C@@H]2O[C@H](COP(=O)(O)OP(=O)(O)OP(=O)(O)OC[C@H]3O[C@@H](n4ccc(=O)[nH]c4=O)[C@H](F)[C@@H]3OP(=O)(O)OC[C@H]3O[C@@H](n4cnc5c(=O)[nH]c(N)nc54)[C@H](F)[C@@H]3O)[C@@H](O)[C@H]2O)c2nc(N)[nH]c(=O)c21` [Compound 68], the “Product amount: amount (mg) of final product obtained per 1 mL of mRNA synthesis reaction system” value came to 5.8 mg.

The values above are taken from patent publication EP4644403A1, “HALOGEN-CONTAINING COMPOUNDS USED FOR CAPPING THE 5' END OF NUCLEIC ACID AND USE THEREOF” (Shenzhen Rhegen Biotechnology Co., Ltd., priority 2023, dated 2024).
